Laboratory results as given in patent US12509460B2 (Skyhawk Therapeutics, Inc., priority 2019, dated 2025).
Read-outs that look alike come from different tables or passages of the source.

Key:
[1] = system: mHTT protein in GM04724 (CAG 70/20) Huntington's disease patient lymphoblast cells; assay: mHTT protein assay, 2B7-MW1 assay via Mesoscale Discovery (MSD); format: cell-based, human
Procedure, shortened: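 Patient lymphoblasts treated 48 h with compound from 10 μM to 0.6 nM. mHTT quantified by MSD 2B7-MW1 immunoassay, whose signal depends on polyQ expansion and HTT size. Viability measured on a replicate plate by CellTiter Glo.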

[2] = system: SMN protein in spinal muscular atrophy (SMA) patient fibroblasts (GM03813, Coriell); assay: SMN protein assay, Mesoscale Discovery (MSD); format: cell-based, human; conditions: for EC50: read-out: SMN2 protein EC50
Procedure, shortened: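 SMA patient fibroblasts (GM03813) seeded at 7000 cells/well and exposed to compound at 2.5 μM to 0.6 nM for 48 hours. Lysates assayed for SMN by MSD immunoassay, with absolute SMN amount calculated from a per-plate SMN standard curve (1 μg/ml to 19.5 pg/ml).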

[3] = system: MDR1-MDCK cell monolayers; conditions: dog, MDCK-MDR1, 120 min, 5 μM, pH 7.4
MDR1 (P-gp) = assay: in vitro; conditions: dog, MDCK-MDR1, pH 7.4
MDR1 = assay: in vitro; conditions: dog, MDCK-MDR1, pH 7.4
[4] = GM04724 (CAG 70/20) Huntington's disease patient lymphoblasts
[5] = SMA patient fibroblasts (GM03813), 48 hours
[6] = GM04724 Huntington's disease patient lymphoblasts
[7] = SMA patient fibroblasts GM03813, 48 hours, MSD

SMILES	mHTT protein EC50 [1, 4]	SMN2 protein EC50 [2, 5]	MDCK-MDR1: % Recov A-B [3] [%]	MDCK-MDR1: % Recov B-A [3] [%]	Papp A→B at 120 min, 5 μM (MDR1 (P-gp)) [×10⁻⁶ cm/s]	Papp B→A at 120 min, 5 μM (MDR1 (P-gp)) [×10⁻⁶ cm/s]	efflux ratio at 120 min, 5 μM (MDR1)	mHTT protein EC50 [1, 6]	SMN2 protein EC50 [2, 7]	EC50 [2, 5] [nM]	EC50 [1, 6] [nM]	EC50 [2, 7] [nM]
Cc1nc2cc(-c3ccc(N(C)[C@H]4C[C@@H]5CC[C@H]([C@H]4F)N5C)nn3)c(O)cc2c(=O)n1CC(F)(F)F (single isomer, unassigned) [Compound 130B]	E (501 ≤ E ≤ 10.000)	E (501 ≤ E ≤ 10.000)	107	110	0.77	72.2	94	–	–	–	–	–
CN(c1ccc(-c2cnc(C#N)cc2O)nn1)[C@H]1C[C@@H]2CC[C@@H](N2)[C@H]1F (single isomer, unassigned) [Compound 71B]	–	–	90	89	5.04	20.9	4	E (501 ≤ E ≤ 10.000)	E (501 ≤ E ≤ 10.000)	–	–	–
CN(C)C(=O)c1cc2cc(O)c(-c3ccc(N(C)[C@@H]4C[C@H]5CC[C@@H]([C@@H]4F)N5C)nn3)cc2o1 (single isomer, unassigned) [Compound 106A]	E (501 ≤ E ≤ 10.000)	E (501 ≤ E ≤ 10.000)	95	92	1.87	63.1	34	–	–	–	–	–
CN(C)C(=O)c1cc(O)c(-c2ccc(N(C)[C@H]3C[C@@H]4CC[C@@H](N4)[C@H]3F)nn2)cc1F (single isomer, unassigned) [Compound 53B]	–	–	100	112	0.27	41.8	153	E (501 ≤ E ≤ 10.000)	E (501 ≤ E ≤ 10.000)	–	–	–
CN(C)C(=O)c1cc(O)c(-c2ccc(N(C)[C@@H]3C[C@H]4CC[C@H](N4)[C@@H]3F)nn2)cc1F (single isomer, unassigned) [Compound 53A]	–	–	96	114	0.32	41	127	E (501 ≤ E ≤ 10.000)	E (501 ≤ E ≤ 10.000)	–	–	–
CN(c1ccc(-c2cc3oc(C(=O)N4CCC4)cc3cc2O)nn1)[C@@H]1C[C@H]2CC[C@@H]([C@@H]1F)N2C [Compound 107A, azetidin-1-yl(6-(6-(((1S,2S,3R,5R)-2-fluoro-8-methyl-8-azabicyclo[3.2.1]octan-3-yl)(methyl)amino)pyridazin-3-yl)-5-hydroxybenzofuran-2-yl)methanone]	E (501 ≤ E ≤ 10.000)	E (501 ≤ E ≤ 10.000)	80	82	1.27	55.1	43	–	–	–	–	–
CN(c1ccc(-c2ccc(Oc3cnn(C)c3)cc2O)nn1)[C@H]1C[C@@H]2CC[C@@H](N2)[C@H]1F (single isomer, unassigned) [Compound 91B]	–	–	106	102	3.94	73.3	19	E (501 ≤ E ≤ 10.000)	E (501 ≤ E ≤ 10.000)	–	–	–
CN(c1ccc(-c2ccc(-n3cnc(C(=O)NC(C)(C)C)c3)cc2O)nn1)[C@@H]1C[C@H]2CC[C@H](N2)[C@@H]1F (single isomer, unassigned) [Compound 124A]	E (501 ≤ E ≤ 10.000)	–	78	78	0.34	45.7	133	–	–	101 to 500	–	–
CN(c1ccc(-c2ccc(C3CC3)cc2O)nn1)[C@@H]1C[C@H]2CC[C@H](N2)[C@@H]1F (single isomer, unassigned) [Compound 31A]	–	–	45	66	8.77	31.3	4	E (501 ≤ E ≤ 10.000)	E (501 ≤ E ≤ 10.000)	–	–	–
CN(c1ccc(-c2ccc(Oc3nccn3C)cc2O)nn1)[C@H]1C[C@@H]2CC[C@@H](N2)[C@H]1F (single isomer, unassigned) [Compound 123B]	E (501 ≤ E ≤ 10.000)	–	92	102	0.66	58.7	89	–	–	101 to 500	–	–
CN(C)C(=O)c1cc2cc(O)c(-c3ccc(N(C4CC4)[C@@H]4C[C@H]5CC[C@H](N5)[C@@H]4F)nn3)cc2o1 [Compound 86A, 6-(6-(cyclopropyl((1S,2S,3R,5R)-2-fluoro-8-azabicyclo[3.2.1]octan-3-yl)amino)pyridazin-3-yl)-5-hydroxy-N,N-dimethylbenzofuran-2-carboxamide]	–	–	93	90	1.05	62.5	60	E (501 ≤ E ≤ 10.000)	E (501 ≤ E ≤ 10.000)	–	–	–
CCc1cn(-c2ccc(-c3ccc(N(C)[C@H]4C[C@@H]5CC(F)(F)[C@H](C4)N5)nn3)c(O)c2)nn1 (single isomer, unassigned) [Compound 64B]	–	–	69	83	5.61	58.6	10	–	E (501 ≤ E ≤ 10.000)	–	101 to 500	–
CN(c1ccc(-c2ccccc2O)nn1)[C@H]1C[C@@H]2CC[C@@H](N2)[C@H]1F (single isomer, unassigned) [Compound 119B]	E (501 ≤ E ≤ 10.000)	E (501 ≤ E ≤ 10.000)	93	95	6.13	58.2	9	–	–	–	–	–
CN1[C@@H]2CC[C@H]1[C@H](F)[C@H](N(c1ccc(-c3cc4oc(C(=O)N5CCC5)cc4cc3O)nn1)C1CC1)C2 (single isomer, unassigned) [Compound 92A]	–	–	93	88	1.23	57.8	47	E (501 ≤ E ≤ 10.000)	E (501 ≤ E ≤ 10.000)	–	–	–
CN(c1ccc(-c2ccc(C3CC3)cc2O)nn1)[C@H]1C[C@@H]2CC[C@@H](N2)[C@H]1F (single isomer, unassigned) [Compound 31B]	–	–	43	74	7.08	27	4	E (501 ≤ E ≤ 10.000)	E (501 ≤ E ≤ 10.000)	–	–	–
CC(=O)N(C)c1ccc(-c2ccc(N(C)[C@@H]3C[C@H]4CC[C@H](N4)[C@@H]3F)nn2)c(O)c1 [Compound 35A, N-(4-(6-(((1S,2S,3R,5R)-2-fluoro-8-azabicyclo[3.2.1]octan-3-yl)(methyl)amino)pyridazin-3-yl)-3-hydroxyphenyl)-N-methylacetamide]	–	–	102	103	0.21	41	197	E (501 ≤ E ≤ 10.000)	E (501 ≤ E ≤ 10.000)	–	–	–
CN1[C@H]2CC[C@@H]1[C@@H](F)[C@@H](N(c1ccc(-c3cc4oc(C(=O)N5CCC5)cc4cc3O)nn1)C1CC1)C2 (single isomer, unassigned) [Compound 92B]	–	–	94	105	1.16	52.3	45	–	–	–	101 to 500	101 to 500
CN(c1ccc(-c2cc3ncn(CC(F)(F)F)c(=O)c3cc2O)nn1)[C@H]1C[C@@H]2CCC[C@H]([C@H]1F)N2C (single isomer, unassigned) [Compound 109B]	E (501 ≤ E ≤ 10.000)	E (501 ≤ E ≤ 10.000)	74	87	2.39	63.3	26	–	–	–	–	–
CNC(=O)c1cc(O)c(-c2ccc(N(C)[C@@H]3C[C@H]4CC[C@@H]([C@@H]3F)N4C)nn2)cc1F (single isomer, unassigned) [Compound 96A]	–	–	100	114	2.97	53.7	18	E (501 ≤ E ≤ 10.000)	E (501 ≤ E ≤ 10.000)	–	–	–
